Publication PMC11788587, “Validating Low‐Dose Iohexol as a Marker for Glomerular Filtration Rate by In Vitro and In Vivo Studies” (Clinical and Translational Science, 2025)
Read-outs that look alike come from different tables or passages of the source.

Experiments:
hMATE2K = molecular target: T1, hMATE2K (Homo sapiens, UniProt Q86VL8); test: Inhibition of hMATE2K-mediated MPP+ uptake, stably transfected 293 cells; assay type: cell-based; settings: substrate 3 µM MPP+, median (95% CI)
T1 construct: expressed in transfected cells; host or cells: HEK-293 (293) cells, pEBTetD plasmid, doxycycline-induced
Description: We characterized the inhibitory potential of iohexol on major drug transporters recommended by regulatory agencies, which were previously assessed in a clinical transporter phenotyping cocktail study. These transporters include hOAT1, hOAT3, hOCT1, hOCT2, hMATE1, hMATE2K, human organic anion transporter polypeptides (hOATP)1B1, hOATP1B3, and human multidrug resistance protein (hMDR)1. Additionally, we investigated whether iohexol is a substrate for any of the renal transporters among these, including hOAT1/3, hOCT1/2, and hMATE1/2K. Cell‐based uptake assays were used to assess the activities of hOAT1/3, hOCT1/2, hMATE1/2K, and hOATP1B1/1B3. Inside‐out membrane vesicle uptake assays were used to evaluate the activity of hMDR1.
To determine the maximal inhibitory potential of iohexol, intracellular accumulation of a standard substrate was measured with and without the clinically relevant highest concentrations of iohexol. Control inhibitors were tested in each experiment.
In all subsequent in vitro studies, control experiments were conducted to validate the results. These included positive controls for substrates and inhibitors, as well as cells either without transporter expression or transfected with an empty vector, and control vesicles. Each condition, including cells or vesicles with the transporter and their respective controls, was analyzed in at least three replicates. For detailed information on materials, methods, and data analysis techniques used, refer to the Supporting Information. […]
R version 4.2.1 (R Foundation for Statistical Computing, Vienna, Austria) was used for statistical evaluations and data visualization. The data analysis approach for the in vitro study was detailed by Hsin CH et al..^1 In brief, for transport assays, the initial uptake rate was calculated by normalizing the substrate concentration to both the protein concentration and the incubation time for each dish or well. The transporter-mediated uptake rate (net uptake) was determined by performing an element-wise subtraction of uptake rates from different conditions. […]

[1] = Clinical trial in healthy volunteers, population pharmacokinetic analysis; assay type: in vivo, human;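 note: population pharmacokinetic parameters fitted to plasma and urine data, interindividual variability modelled exponentially, inter-occasion variability tied additively, sensitivity analysis compares alternative models omitting data from one subject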
Description: After establishing a reasonable structural model, the impact of dose‐related effects was assessed as a categorical covariate on PK parameters through forward and backward selection processes. Model improvement was evaluated using the change in the objective function value (ΔOFV), with significance levels of 0.05 (ΔOFV ≤ −3.84) and 0.01 (ΔOFV ≤ −6.63). The stability and performance of the final model were evaluated graphically and statistically, using goodness‐of‐fit plots, nonparametric bootstrap analysis [32], and the visual predictive check (VPC) technique [33], as described earlier [28].
Interindividual variability was estimated for CLR, V1, V2, and V3 using an exponential model. Inter‐occasion variability for CLR, V1, and Q2 was linked to inter‐individual variability through an additive model. The residual variability in plasma and urine data was best described by proportional error models.
To evaluate its impact on the final parameter estimates, we used two approaches: (i) conducting a sensitivity analysis by comparing parameter estimates across three models—the final model, a model excluding early post-dose plasma samples from the subject, and a model excluding all data from this period for the subject.

P‐glycoprotein = system: P‐glycoprotein; design: method as in ref 16 Supawat et al.; settings: human cancer cell lines; not statistically significant; ref 16 Supawat et al.; cited from earlier work
[2] = Model 1: excluding samples within 45 minutes after the test dose for the subject with delayed absorption
[3] = Model 2: excluding all data from the subject with delayed absorption when receiving the test dose
[4] = final model, entire dataset, n=12
[5] = final model, nonparametric bootstrap
[6] = one subject, test dose period with suspected paravenous administration, model with absorption phase

T1 sequence (Q86VL8 1-566 isoform Q86VL8-3): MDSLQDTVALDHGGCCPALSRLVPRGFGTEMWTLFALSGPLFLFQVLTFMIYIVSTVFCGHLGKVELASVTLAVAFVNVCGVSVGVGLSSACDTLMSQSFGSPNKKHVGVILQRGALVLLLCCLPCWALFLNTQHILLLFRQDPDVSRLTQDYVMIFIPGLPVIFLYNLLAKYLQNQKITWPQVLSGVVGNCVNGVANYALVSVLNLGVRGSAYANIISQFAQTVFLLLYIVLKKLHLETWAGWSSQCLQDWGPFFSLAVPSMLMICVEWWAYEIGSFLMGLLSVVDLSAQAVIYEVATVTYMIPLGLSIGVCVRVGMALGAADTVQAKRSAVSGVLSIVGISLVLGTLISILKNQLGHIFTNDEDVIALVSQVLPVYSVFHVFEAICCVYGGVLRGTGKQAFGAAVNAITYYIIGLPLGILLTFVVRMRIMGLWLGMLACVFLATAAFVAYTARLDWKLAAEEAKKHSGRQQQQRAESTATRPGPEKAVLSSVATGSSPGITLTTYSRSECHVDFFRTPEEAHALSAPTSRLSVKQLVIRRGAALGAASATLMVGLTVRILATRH

CC(=O)N(CC(O)CO)c1c(I)c(C(=O)NCC(O)CO)c(I)c(C(=O)NCC(O)CO)c1I (stereo not shown) [iohexol]
Inhibitory effect (% reduction of specific activity) (hMATE2K; 20 mM iohexol): < 30%
inhibition at 1000 µM (hMATE2K; HEK293, 1 mM iohexol, read-out: Inhibitory effect (% reduction of specific activity)): 14%
inhibition at 20000 µM (hMATE2K; HEK293, 20 mM iohexol, read-out: Inhibitory effect (% reduction of specific activity)): 26%
Effect of dose level (categorical covariate) on PK parameters ([1]; 259 mg vs 3235 mg): did not differ significantly
Inter-individual variability CLR estimate ([1]; Model 1): 14.4 CV%
Inter-individual variability V1 estimate ([1]; Model 1): 16.8 CV%
Inter-individual variability V2 estimate ([1]; Model 1): 15.1 CV%
Inter-individual variability V3 estimate ([1]; Model 1): 15.0 CV%
Inter-occasion variability CLR estimate ([1]; Model 1): 3.69 CV%
Inter-occasion variability Q2 estimate ([1]; Model 1): 23.7 CV%
Inter-occasion variability V1 estimate ([1]; Model 1): 4.82 CV%
Q1 estimate [1, 2]: 0.219 L/h
Q2 estimate [1, 2]: 5.53 L/h
V1 estimate [1, 2]: 8.91 L
V2 estimate [1, 2]: 1.54 L
V3 estimate [1, 2]: 4.30 L
Inter-individual variability CLR estimate ([1]; Model 2): 14.2 CV%
Inter-individual variability V1 estimate ([1]; Model 2): 17.2 CV%
Inter-individual variability V2 estimate ([1]; Model 2): 13.8 CV%
Inter-individual variability V3 estimate ([1]; Model 2): 13.5 CV%
Inter-occasion variability CLR estimate ([1]; Model 2): 2.33 CV%
Inter-occasion variability Q2 estimate ([1]; Model 2): 17.1 CV%
Inter-occasion variability V1 estimate ([1]; Model 2): 3.87 CV%
Q1 estimate [1, 3]: 0.227 L/h
Q2 estimate [1, 3]: 5.38 L/h
V1 estimate [1, 3]: 8.90 L
V2 estimate [1, 3]: 1.57 L
V3 estimate [1, 3]: 4.30 L
Interindividual variability CLR, point estimate ([1]; final model, entire dataset): 14.0 CV%
Interindividual variability V1, point estimate ([1]; final model, entire dataset): 16.6 CV%
Interindividual variability V2, point estimate ([1]; final model, entire dataset): 14.0 CV%
Interindividual variability V3, point estimate ([1]; final model, entire dataset): 15.5 CV%
Interoccasion variability CLR, point estimate ([1]; final model, entire dataset): 2.51 CV%
Interoccasion variability Q2, point estimate ([1]; final model, entire dataset): 29.2 CV%
Interoccasion variability V1, point estimate ([1]; final model, entire dataset): 6.23 CV%
Q1 point estimate [1, 4]: 0.221 L/h
Q2 point estimate [1, 4]: 5.84 L/h
V1 point estimate [1, 4]: 9.06 L
V2 point estimate [1, 4]: 1.56 L
V3 point estimate [1, 4]: 4.34 L
Interindividual variability CLR, bootstrap median (95% CI) [1, 5]: 13.5 (5.05–20.1) CV%
Interindividual variability V1, bootstrap median (95% CI) [1, 5]: 15.5 (6.88–23.1) CV%
Interindividual variability V2, bootstrap median (95% CI) [1, 5]: 13.4 (7.81–20.7) CV%
Interindividual variability V3, bootstrap median (95% CI) [1, 5]: 13.7 (5.57–19.2) CV%
Interoccasion variability CLR, bootstrap median (95% CI) [1, 5]: 2.44 (0.900–3.87) CV%
Interoccasion variability Q2, bootstrap median (95% CI) [1, 5]: 28.7 (6.99–65.8) CV%
Interoccasion variability V1, bootstrap median (95% CI) [1, 5]: 6.06 (1.55–10.2) CV%
Q1 bootstrap median (95% CI) [1, 5]: 0.219 (0.164–0.313) L/h
Q2 bootstrap median (95% CI) [1, 5]: 5.76 (4.11–8.23) L/h
V1 bootstrap median (95% CI) [1, 5]: 9.06 (8.18–10.1) L
V2 bootstrap median (95% CI) [1, 5]: 1.57 (1.36–1.87) L
V3 bootstrap median (95% CI) [1, 5]: 4.34 (3.81–4.99) L
CL renal ([1]; human, plasma and urine, intravenous, Model 1: excluding samples within 45 minutes after the test dose for the subject with delayed absorption, read-out: CLR estimate (converted)): 90.8 mL/min
CL renal ([1]; human, plasma and urine, intravenous, Model 2: excluding all data from the subject with delayed absorption when receiving the test dose, read-out: CLR estimate (converted)): 91.5 mL/min
CL renal ([1]; human, plasma and urine, intravenous, final model, entire dataset, n=12, read-out: CLR point estimate (converted)): 91.7 mL/min
CL renal ([1]; human, plasma and urine, intravenous, final model, nonparametric bootstrap, read-out: CLR bootstrap median (95% CI) (converted)): 91.7 mL/min
CL renal ([1]; human, plasma and urine, intravenous, final model, read-out: Individual empirical Bayesian estimates of CLR, median (range) (converted)): 87.5 mL/min
Vd ([1]; human, plasma and urine, intravenous, final model, read-out: Individual empirical Bayesian estimates of volume of distribution (sum of V1, V2, and V3), median (range)): 15.1 L
First-order absorption rate constant [1, 6]: 0.876 h⁻¹
Relative bioavailability [1, 6]: 93.6%
Inhibitory effect on P-glycoprotein (P‐glycoprotein): mild inhibitory effect
